row,melting point [°C],SMILES
1,60 to 62,O=C(O)C1(Cc2cccc(Cl)c2)CCCC1
2,90 to 92,O=C(O)CNC(=O)c1cccc([N+](=O)[O-])c1
3,143 to 145,COC(=O)c1c(NC(=O)CCl)sc(C)c1C
4,101 to 103,CCCS(=O)(=O)Nc1cccc(O)c1
5,65 to 67,CCOC(=O)C(=O)c1ccc2c(c1)OCCO2
6,109 to 111,O=C(O)CC1OCCc2ccsc21 (configuration not stated)
7,193 to 195,CCC(=O)N(C)c1ccccc1C(=O)O
8,189 to 191,Cc1nc(Cc2ccccn2)sc1C(=O)O
9,93 to 95,CNC(=O)C1CNCCO1 (configuration not stated)
10,205 to 207,NS(=O)(=O)c1scnc1C(=O)O
11,179 to 181,CC(C)(C)NS(=O)(=O)c1ccc(Cl)c(C(=O)O)c1
12,82 to 84,COc1ccc(NCCC(=O)O)cc1
13,166 to 168,CC(=O)N(c1ccc(C)cc1)c1nc(C=O)cs1
14,159 to 161,COc1ccc2[nH]nc(N)c2c1
15,143 to 145,O=C(O)CCNS(=O)(=O)c1cccs1
16,106 to 108,COc1ccc(C(C)=O)cc1CSCC(=O)O
17,222 to 224,Cc1ccccc1CC(=O)Nc1ccc(C(=O)O)c(O)c1
18,205 to 207,CC1(C(=O)O)CCCN1C(=O)c1ccccc1 (configuration not stated)
19,134 to 136,Cc1sc(N)c(C#N)c1C
20,48 to 50,Clc1noc(-c2ccoc2)n1
21,146 to 148,CCCOc1ccc(C(=O)NN)cc1OC
22,210 to 212,Sc1ncc(-c2ccc(Br)cc2)[nH]1
23,77 to 79,C#CCOc1ccccc1C#N
24,238 to 240,NC(=O)c1ccccc1OCc1cccc(C(=O)O)c1
25,88 to 90,Nc1cc(-c2ccc(OC(F)F)cc2)no1

row,melting point [°C],SMILES
1,181 to 183,C#Cc1ccc(C(=O)O)nc1
2,84 to 86,CCCS(=O)(=O)N1CCCCC1C(=O)O (configuration not stated)
3,249 to 251,Nc1c(C(=O)O)ccnc1Cl
4,119 to 121,CCCn1c(S)nnc1CO
5,127 to 129,Cn1nc(C(F)(F)F)c(C(=O)O)c1C(F)(F)F
6,69 to 71,N#CCC(=O)N(CC(F)(F)F)C1CC1
7,179 to 181,NC(=O)CNC(=O)c1cccc(O)c1
8,329 to 331,O=C(O)c1cccc2[nH]c(=O)oc12
9,140 to 142,Nc1ccn(CCc2ccncc2)n1
10,119 to 121,CC(C)(CCC(=O)O)NC(=O)OCC1c2ccccc2-c2ccccc21
11,127 to 129,O=C(C(=O)N1CCOCC1)N1CCNCC1
12,83 to 85,Cc1nnc(CO)s1
13,144 to 146,O=Cc1c(-c2ccccc2)nc2ccccn12
14,164 to 166,Cn1nc(-c2ccccn2)c(-c2ccc(F)cc2)c1N
15,178 to 180,Cc1cc(C)n2nc(C(=O)O)nc2n1
16,70 to 72,CC(=O)c1ccc(O)c(CN2CCOCC2)c1
17,124 to 126,NC(=NO)C(c1ccccc1)c1ccccc1
18,181 to 183,COc1ccc(-n2c(N)nc3ccccc32)cc1
19,203 to 205,CC(C)CCNc1c(N)n(Cc2ccccc2)c(=O)[nH]c1=O
20,163 to 165,Cc1nc(CNC(=O)OC(C)(C)C)ccc1C(=O)O
21,89 to 91,Nc1ccn(-c2ncccc2F)n1
22,110 to 112,CC(C)(O)c1ccc2[nH]ccc2c1
23,181 to 183,CCOC(=O)c1ccc2c(c1)NC(=O)C(C)N2 (configuration not stated)
24,230 to 232,COC(=O)c1ccc2[nH]cc(C=O)c2c1
25,52 to 54,c1cc(OCC2CO2)c2cc[nH]c2c1 (configuration not stated)

row,melting point [°C],SMILES
1,250 to 252,CC1NC(=O)c2ccccc2N(C)C1=O (configuration not stated)
2,84 to 86,Nc1noc(C2CC2)n1
3,125 to 127,NC(N=O)=C1NC=Cc2ccccc21
4,205 to 207,O=C(O)c1cnoc1-c1ccc(Cl)cc1
5,77 to 79,CNc1ccncn1
6,60 to 62,CCOc1ccc(Cl)nn1
7,154 to 156,Nc1ccc(Oc2ccnc3cc(Cl)ccc23)c(F)c1
8,213 to 215,Nc1nc2cc(Br)ccc2n1Cc1ccccc1
9,184 to 186,Cc1cc(C)n(-c2ccc(Cl)c(C(=O)O)n2)n1
10,231 to 233,CCOC=C1C(=O)N(c2ccccn2)C(=O)c2ccccc21
11,83 to 85,COc1ccccc1NC(=O)NC1CCNCC1
12,196 to 198,CN(C)C(=O)c1ccnc(N)c1
13,198 to 200,CC(C)CN1CCCCC1C(=O)O (configuration not stated)
14,374 to 376,O=C(O)c1cc(F)cc2[nH]c(S)nc12
15,93 to 95,O=C(c1ccc(F)cc1F)N1CCCNCC1
16,134 to 136,CCC(C)n1ncc2c(C(=O)O)cc(C3CC3)nc21 (configuration not stated)
17,117 to 119,COc1cc(C(N)=S)ccn1
18,112 to 114,COc1ccccc1CC(=O)NN
19,246 to 248,O=C(O)c1cnn(-c2ccc(Cl)cc2Cl)c1
20,229 to 231,CC(C)C(=O)Nc1ccc(Cl)c(C(=O)O)c1
21,231 to 233,Cc1cc(-c2ccccc2)nc2cc(O)nn12
22,96 to 98,Nc1onc(C2CCC2)c1-c1ccc2c(c1)OCO2
23,197 to 199,FC(F)(F)c1ccccc1Nc1nnc(S)s1
24,64 to 66,Cc1[nH]ncc1Cl
25,88 to 90,CCC(C)c1ccc(C(=O)O)cc1 (configuration not stated)

row,melting point [°C],SMILES
1,201 to 203,COc1ccc(C2C(C(=O)O)CCC(=O)N2c2ccc(C)cc2)cc1 (configuration not stated)
2,99 to 101,Nc1ccc(CCn2nnc(-c3ccccc3)n2)cc1
3,75 to 77,O=C(Nc1cccc2cccnc12)OCC(F)(F)F
4,215 to 217,Cc1noc2nc(C3CC3)cc(C(=O)O)c12
5,270 to 272,CC(C)Oc1ccc(S(=O)(=O)N2CCCCC2)cc1NC(=O)CCl
6,212 to 214,NS(=O)(=O)c1ccc(C(=O)O)o1
7,85 to 87,CSc1nc2cnccc2o1
8,65 to 68,COC(=O)c1cccc(OC)c1O
9,118 to 120,Nc1cc(-c2cccc(Cl)c2)nn1-c1ccccc1
10,211 to 213,O=C(O)c1occc1CS(=O)(=O)c1ccc(Br)cc1
11,104 to 106,O=Cc1ccc(-c2cccnc2)o1
12,269 to 271,CCCC(C)(N)C(=O)O (configuration not stated)
13,204 to 206,Nc1nncc(-c2ccccc2F)n1
14,161 to 163,CC(C)c1c(C(=O)O)cnn1-c1cccc(Cl)c1
15,161 to 163,Cc1cccn2cc(-c3ccc(N)cc3)nc12
16,82 to 84,CC(C)CN1C(=O)C(=O)c2ccccc21
17,81 to 83,COc1ccccc1C(C)=CC(=O)O
18,206 to 208,Cc1ccc(C(=O)c2ccc3[nH]c(=O)oc3c2)cc1
19,106 to 108,CCc1cccc(Oc2ccc(F)cc2C=CC(=O)O)c1
20,118 to 122,O=C(CCl)NC1C2CC3CC(C2)CC1C3 (configuration not stated)
21,71 to 73,CSc1ccc(C(C)=O)cc1F
22,97 to 99,O=C(O)c1cc(C2CC2)on1
23,146 to 148,O=C(O)C1CCN(C(=O)C2(c3ccccc3)CCC2)CC1
24,86 to 88,COc1cc(C#N)ccc1OCC1CCCO1 (configuration not stated)
25,138 to 140,COC(=O)N(C)c1ccccc1C(=O)O

row,SMILES,melting point [°C]
1,Nc1ccc(C2(c3ccc(N)cc3)CCCCC2)cc1,110 to 112
2,N#CCNC(=O)CCl,88 to 90

# Source: a melting point compilation (Tetko et al.)
